{
  "source": "patent US20130131161A1",
  "about": "“METHODS AND COMPOSITIONS FOR CARDIOVASCULAR DISEASES AND CONDITIONS” (priority 2009, published 2013)",
  "test_system": "Human umbilical vein endothelial cells (HUVECs)",
  "assay": "Comparison of LA-419 and ISDN: NO and ONOO− release from HUVECs measured with tandem electrochemical nanosensors (Example 1)",
  "format": "cell-based",
  "details": "for NO release (mean ± S.D.) / ONOO− release (mean ± S.D.): 500 nM, 12 hours, then CaI (1.0 μM)",
  "method": "Human umbilical vein endothelial cells (HUVECs) were isolated into primary cultures and purchased as proliferating cells from Clonetics (San Diego, Calif.). All cell culture donors were healthy, with no pregnancy or prenatal complications. The cultured cells were incubated in 95% air/5% CO2 at 37° C. and passage by an enzymatic (trypsin) procedure. The confluent cells (4 to 5×10^5 cells per 35-mm dish) were placed with minimum essential medium containing 3 mM L-arginine and 0.1 mM BH4 [(6R)-5,6,7,8-tetrahydrobiopterin]. Before the experiments, the cells (from second or third passage) were rinsed twice with Tyrode-HEPES buffer with 1.8 mM CaCl2. ISDN was obtained from Sigma-Aldrich.\nConcurrent measurements of NO and ONOO^− were carried out with tandem electrochemical nanosensors combined into one working unit with a total diameter of 200-500 nm (FIG. 1). Their design was based on previously developed and well-characterized chemically modified carbon-fiber technology (Malinski and Taha, 1992; Lvovich and Scheeline, 1997). Each of the nanosensors was made by depositing a sensing material on the tip of a carbon fiber (length 4-5 μm, diameter 0.2-0.5 μm). The fibers were sealed with nonconductive epoxy and electrically connected to copper wires with conductive silver epoxy. A conductive film of polymeric nickel (II) tetrakis(3-methoxy-4-hydroxyphenyl)porphyrin for the NO-sensor and polymeric film of Mn (III) [2.2]paracyclophanylporphyrin was used for the ONOO^−-sensor.\nA module of NO/ONOO^− nanosensors (diameter 1-2 μm) with a platinum wire (0.1 mm) counter electrode and saturated calomel reference electrode (SCE) were applied. Differential pulse voltammetry (DPV) and amperometry were performed with a computer-based Gamry VFP600 multichannel potentiostat. DPV was used to measure the basal NO and ONOO^− concentrations, and amperometry was used to measure changes in NO and ONOO^− concentrations from its basal level with time. The DPV current at the peak potential characteristic for NO oxidation (0.65 V) and ONOO^− reduction (−0.45 V) was directly proportional to the local concentrations of these compounds in the immediate vicinity of the sensor. Linear calibration curves (current vs. concentration) were constructed for each sensor from 10 nM to 3 μM before and after measurements with aliquots of NO and ONOO^− standard solutions, respectively. The detection limit of the sensors was 1.0 nM.\nThe quantification of each analyte (concentration in nM) was performed using a maximum current from amperograms and standard calibration curves. A reproducibility of measurements with nanosensors is relatively high (between 5-12%). […] The sensors were slowly raised 5±2 μm from the surface of a single endothelial cell. The eNOS agonist, calcium ionophore A23187 (CaI) as well as the different drugs were then added to the surrounding media at the cell surface with a nanoinjector that was also positioned by a computer controlled-micromanipulator.\nThe HUVEC preparation is stable over the course of these experiments with the cells remaining viable in culture for >24 hours. Under non-stimulating conditions, basal levels of NO release are very low (<30 nM). Measurement of NO release as a function of treatment was conducted in individual endothelial cells. Multiple measurements of NO release can be conducted on single cells following a brief refractory period. For robust statistical analysis, separate cells were used for each concentration and type of drug used in these analyses.",
  "key": {"[1]": {"details": "HUVECs from Non-Hispanic Whites"}},
  "data": [
    {"smiles": "CC(=O)SC1COC2C(O[N+](=O)[O-])COC12", "note": "(stereo not drawn) [LA-419, S-(6-Nitro-oxi-hexahydro-furo[3,2-b]furan-3-1-il)thioacetate]", "values": [
      {"measurement": "NO release (mean ± S.D.)", "setting": "HUVECs from African Americans", "value": "253 ± 15", "unit": "nM"},
      {"measurement": "ONOO− release (mean ± S.D.)", "setting": "HUVECs from African Americans", "value": "532 ± 25", "unit": "nM"},
      {"measurement": "NO release (mean ± S.D.)", "setting": "[1]", "value": "409 ± 30", "unit": "nM"},
      {"measurement": "ONOO− release (mean ± S.D.)", "setting": "[1]", "value": "307 ± 11", "unit": "nM"},
      {"measurement": "effect on NO release", "setting": "HUVECs from both non-Hispanic whites and African Americans, identical conditions", "value": "small increase"},
      {"measurement": "NO/ONOO− ratio versus control samples", "setting": "HUVECs, 12 h treatment", "value": "not significantly different from control samples"}
    ]}
  ]
}
